Source: patent publication US20110230430A1, “SAPONIN EXTRACT FROM SAPONARIA SPP. AND USES THEREOF” (NATIONAL RESEARCH COUNCIL OF CANADA, priority 2008, published 2011)

Key:
MCF-7 cells = test: Dual Sensor: MitoCasp Assay in MCF-7 breast cancer cells; assay type: cell-based, human; conditions: 5 and 10 μM, 24 hours
From the text: Techniques to assay enzymatic and signaling processes involved in apoptosis have been developed as standard protocols. One example of an early step in apoptosis, is the release of cytochrome C from mitochondria and the activation of caspase-3. Induction of the caspases (a series of cytosolic proteases) is one of the most consistently observed features of apoptosis. Caspases are a family of proteolytic enzymes that transmit the apoptotic signal using a proteolytic cascade. […] Caspases 3 and 7 are effector caspases, central to the caspase cascade pathways. In particular, caspase-3 plays a central role in the process. […] Collapse of the mitochondrial membrane potential during apoptosis prevents the dye from accumulating in the mitochondria resulting in a decrease in fluorescent intensity that can be detected with flow cytometry. […] In this assay, caspase 3/7 activity is detected using a cell permeable carboxyfluorescein labeled caspase inhibitor, which binds covalently to active caspases 3 and 7. Cells that contain bound inhibitor are detected by an increase in fluorescence when samples are analyzed by flow cytometry. […]
MCF-7 cells were treated with 5.0 μM and 10 μM of saponins PC1526, PC1464 and PC1422 for 24 hours and assessed using Dual Sensor: MitoCasp™ Assay.

PC-3 cells = test: APO LOGIX Carboxyfluorescein Caspase 9 Detection Kit in PC-3 cells; assay type: cell-based, human
From the text: In a still further apoptotic assay, apoptosis can be measured by the APO LOGIX™ Carboxyfluorescein Caspase 9 Detection Kit. The APO LOGIX™ Carboxyfluorescein Caspase 9 Detection Kit uses a cell permeable carboxyfluorescein labeled caspase inhibitor, which binds covalently to active caspases 9. Caspase 9 is involved in initiating apoptosis through the mitochondrial pathway (Budihardjo I., et al. 1999). Cells that contain bound inhibitor are detected by an increase in fluorescence when samples are analyzed by flow cytometry.
PC-3 cells (ATCC #CRL-1435) were derived from a prostate adenocarcinoma (Kaighn et al., 1979). They were maintained in RPMI 1640 medium (Gibco) supplemented with 10% fetal bovine serum (Cansera), 100 U/mL penicillin, and 100 μg/mL streptomycin and 0.25 μg/mL amphotericin B. Cultures were maintained in medium at 37° C. with 5% CO2 and 100% relative humidity.
PC-3 cells were seeded in tissue culture flasks with regular growth medium and maintained under normal conditions. After cells had adhered, the tissue culture medium was replaced with medium containing PC1448 dissolved in DMSO with the final concentration of DMSO not exceeding 0.05%. For each assay, a flask of untreated cells was grown in media containing the same amount of DMSO as in the PC1448 treated samples. Following incubation under normal growth conditions for the specified time, cells were washed once with cold phosphate-buffered saline (PBS) (137 mM NaCl, 2.7 mM KCl, 4.3 mM Na2HPO4.7H2O, 1.4 mM KH2PO4) and harvested as previously described. Assays were carried out according to instructions given in kits. All Flow Cytometry was performed using a Coulter Epics XL (Beckman).

Substance	Induction of apoptosis (in words, FIG. 16) (MCF-7 cells)	Caspase 9 positive cells (PC-3 cells; 7 μM PC1448, 20 hr)	Caspase 9 positive cells (PC-3 cells; 10 μM PC1448, 20 hr)	Caspase 9 positive cells (PC-3 cells; 14 μM PC1448, 10 hr)	Caspase 9 positive cells (PC-3 cells; 14 μM PC1448, 15 hr)	Caspase 9 positive cells (PC-3 cells; 14 μM PC1448, 20 hr)	Increase in cells with caspase 9 activity vs untreated (PC-3 cells; 14 μM PC1448, 20 hr (concentration range))	Caspase 9 positive cells (PC-3 cells; 14 μM PC1448, 20 hr (concentration series))	Increase in cells showing caspase 9 activity vs untreated (PC-3 cells; 14 μM PC1448, 20 hr (time course))	Caspase 9 positive cells (PC-3 cells; 14 μM PC1448, 40 hr)	Caspase 9 positive cells (PC-3 cells; 17 μM PC1448, 20 hr)
Segetoside I [PC1464]	do not induce apoptosis										
Segetoside H [PC1448]		47.7%	73.9%	37.3%	44.2%	48.0%	six fold	75.3%	six fold	29.4%	65.6%
